Measurements reported in ChEMBL document CHEMBL4680289, “10-(4-Phenylpiperazine-1-carbonyl)acridin-9(10H)-ones and related compounds: Synthesis, antiproliferative activity and inhibition of tubulin polymerization” (Bioorg Med Chem Lett, 2021).

Columns and labels:
Format in all cases: functional
[1] = tested on: K562; test: Induction of apoptosis in human K562 cells assessed as early apoptotic cells at 0.01 micromol/L measured after 48 hrs by Annexin V-FITC/7-AAD staining based flow cytometric analysis (reference value: 4.2 %); settings: dose 0.01 µmol/L, at 0.01 µM
[2] = tested on: K562; test: Induction of apoptosis in human K562 cells assessed as necrotic cells at 0.3 micromol/L measured after 48 hrs by Annexin V-FITC/7-AAD staining based flow cytometric analysis (reference value: 0.46 %); settings: dose 0.3 µmol/L, at 0.3 µM
[3] = tested on: K562; test: Induction of apoptosis in human K562 cells assessed as late apoptotic cells at 0.1 micromol/L measured after 48 hrs by Annexin V-FITC/7-AAD staining based flow cytometric analysis (reference value: 2.49 %); settings: dose 0.1 µmol/L, at 0.1 µM
[4] = tested on: K562; test: Induction of apoptosis in human K562 cells assessed as late apoptotic cells at 0.1 uM measured after 12 hrs by Annexin V-FITC/7-AAD staining based flow cytometric analysis relative to control
[5] = tested on: K562; test: Induction of apoptosis in human K562 cells assessed as late apoptotic cells at 0.03 micromol/L measured after 48 hrs by Annexin V-FITC/7-AAD staining based flow cytometric analysis (reference value: 2.49 %); settings: dose 0.03 µmol/L, at 0.03 µM
[6] = tested on: K562; test: Induction of apoptosis in human K562 cells assessed as early apoptotic cells at 0.1 uM measured after 12 hrs by Annexin V-FITC/7-AAD staining based flow cytometric analysis relative to control
[7] = tested on: K562; test: Induction of apoptosis in human K562 cells assessed as necrotic cells at 0.1 micromol/L measured after 48 hrs by Annexin V-FITC/7-AAD staining based flow cytometric analysis (reference value: 0.46 %); settings: dose 0.1 µmol/L, at 0.1 µM
[8] = tested on: K562; test: Induction of apoptosis in human K562 cells assessed as necrotic cells at 0.1 uM measured after 6 hrs by Annexin V-FITC/7-AAD staining based flow cytometric analysis relative to control
[9] = tested on: K562; test: Induction of apoptosis in human K562 cells assessed as early apoptotic cells at 0.03 micromol/L measured after 48 hrs by Annexin V-FITC/7-AAD staining based flow cytometric analysis (reference value: 4.2 %); settings: dose 0.03 µmol/L, at 0.03 µM
[10] = tested on: K562; test: Induction of apoptosis in human K562 cells assessed as viable cells at 0.1 uM measured after 72 hrs by Annexin V-FITC/7-AAD staining based flow cytometric analysis relative to control; settings: read-out: Activity
[11] = tested on: K562; test: Induction of apoptosis in human K562 cells assessed as viable cells at 0.03 micromol/L measured after 48 hrs by Annexin V-FITC/7-AAD staining based flow cytometric analysis (reference value: 92.85 %); settings: K562, 48 h, dose 0.03 µmol/L, read-out: Activity
[12] = tested on: K562; test: Induction of apoptosis in human K562 cells assessed as early apoptotic cells at 1 micromol/L measured after 48 hrs by Annexin V-FITC/7-AAD staining based flow cytometric analysis (reference value: 4.2 %); settings: dose 1 µmol/L, at 1 µM
[13] = tested on: K562; test: Cell cycle arrest in human K562 cells assessed as increase in cell accumulation at G2/M phase measured after 18 hrs by propidium iodide/RNase FACSCalibur staining based flow cytometry; settings: dose 0.003-1 µmol/L

## COc1cc(OC)cc(N2CCN(C(=O)n3c4ccccc4c(=O)c4ccccc43)CC2)c1
[1]
  Activity: 6.24%
[2]
  Activity: 0.35%
[3]
  Activity: 22.22%
[4]
  Activity: 2.86%
[5]
  Activity: 25.72%
[6]
  Activity: 9.02%
[7]
  Activity: 0.33%
[8]
  Activity: 0.24%
[9]
  Activity: 21.52%
[10]
  viability at 0.1 µM: 18.2%
[11]
  viability at 0.03 µM: 52.2%
[12]
  Activity: 27.4%
[13]
  Activity: Dose-dependent effect
